Entries after “also recorded” stand apart in the source; their conditions may differ. Like-named read-outs stand apart in the source and are kept apart here.
How the values were obtained:
[1] = system: bone marrow derived phagocytes exposed to Mtb; format: cell-based, mouse
ApoE−/− mice = test: Atherosclerosis model, ApoE−/− mice fed high fat Western diet; format: in vivo, mouse
Experimental: Aortic root and arch sections were stained with HE. The mean atherosclerotic area (μm2)±SEM was quantified.
ORO histology was employed to identify lipids in the mouse atherosclerotic plaque. Lipids were quantified by red signal intensity percentage area of plaque±SEM. […] All animals still had very high cholesterol levels and to obtain a reading, the plasma was diluted to 1:10. After analysis, no statistical difference was seen between any group using one way ANOVA paired with Tukey's Multiple Comparison Test. […]
Treatments were administered via 150 μL i.p. injection every 3rd day, for a total of 7 weeks.

C57bl6 mice = settings: 0.3 nmol/g i.p.
Experimental: Peritonitis was induced by injecting 3 ml 4% thioglycolate i.p. and after 20 hours, the mice were anaesthetized and the peritoneal cavity was flushed with 5 ml sterile PBS. Subsequently, monocytes/macrophages were quantified with F4/80 and CD11b in flow cytometry.
Peritonitis was induced by injecting 3 ml 4% thioglycolate i.p. and after 20 hours, the mice were anaesthetized and the peritoneal cavity was flushed with 5 ml sterile PBS. Subsequently, monocytes and macrophages were quantified with F4/80 and CD11b in flow cytometry.

[2] = system: stimulated human T lymphocytes; test: Cytokine production by anti-CD3/CD28 stimulated human mononuclear cells with Kv1.3 and IDE inhibitors; format: cell-based
Experimental: Peripheral blood was obtained from two healthy donors. Mononuclear cells were purified by Ficol-Hypaque centrifugation. […] The culture supernatants were collected 24 hours post-treatment and were assayed for eleven Th1/Th2 cytokines using a multiplex system (Bender, Cat. No. BMS810FF): IL-1beta, IL-2, IL-4, IL-5, IL-6, IL-8, IL-10, IL-12p70, TNF-alpha, TNF-beta, IFN-gamma.

B7-H1 = settings: 200 nM PIF, 10 days, IFN γ at day 7
Experimental: (§1) Mouse splenocytes were used for mixed Lymphocytes Reaction (MLR). Balb/c cells were cultured in the presence of irradiated C57/Bl cells for 4 days. […] Cell proliferation was tested by H3 Tymidine uptake assay. […] One representative experiment is shown out of four performed. […] Anti-CD3 antibodies were added to the medium for T cell activation. Cell proliferation was tested by H3 Thymidine uptake. […] At day 7, 100 ng/ml IFN γ was added. After 10 days cells were analyzed by FACS analysis using anti-B7-H1 antibodies. FIG. 2D illustrates murine macrophages were cultured with GM-CSF for 10 days. IFN-γ was added to the culture at day 7 for cell activation. […] This is relevant since B7-H1 is one of the newly defined inhibitory B7 family molecules. It is known that IFN gamma potently stimulates B7-H1 expression on APC. […] THP-1 cells were incubated for 48 hours, then were stimulated with […] and collected at 0, 1, 8, 12 and 24 hour time points. […] The 8 hour time point was selected to allow time for cell stimulation. The gene regulation comes quickly and the selected time point allows enough time for stimulation and not over/under. […] In the last 24 hours of the experiment, LPS was added to the culture for cell activation. Greiss reagent test was performed to detect NO secretion to the supernatant.

[3] = system: Balb/c splenocytes with irradiated C57/Bl cells; settings: 4 days; 150 nM and 200 nM PIF significant
Experimental: as §1

T cells = settings: monocytes 10 days with 200 nM PIF, co-culture 4 days, anti-CD3
Experimental: as §1

THP-1 cells [4] = system: THP-1 cells
Experimental: as §1

[5] = system: RAW (Macrophage cell line); settings: PIF 200 nM, 2 or 5 day incubation, no LPS
Experimental: as §1
In the last 24 hours of the experiment, LPS was added to the culture for cell activation. […]

[6] = Surface Plasmon Resonance, LPS binding to PIF-labeled sensor surface; set-up: species or system E. coli; settings: LPS 5, 25 and 100 μM, immobilized peptide, preliminary results
PBMCs = test: Cytokine secretion of naïve and stimulated PBMCs; format: cell-based, human; settings: for TH2 and TH1 cytokines secretion in activated PBMCs: anti-CD3 or anti-CD3/anti-CD28 stimulation
Experimental: FIG. 3A and FIG. 3B illustrate that mitogen stimulation enhances FITC-PIF binding to T and B cell populations. PBMC were cultured with PHA for 24 h. Binding of FITC-PIF to different PBMC populations was determined by two color flow cytometry. Binding was low (<10% in unstimulated cells a, upper panel from left to right) CD4+, CD8+, NK, (CD56+) and B (CD19+) cells. However, it led to a ˜30-fold increase in binding to b (lower panel from left to right), CD4+, CD8+ and B (CD19+) cells. Binding was unchanged for NK cells, even after a 72 hour incubation period. FIG. 3C, FIG. 3D, FIG. 3E, and FIG. 3F illustrate that sPIF promotes TH2/TH1 cytokine bias in stimulated PBMCs. […] FIG. 3B illustrates sPIF (50 nM); FIG. 3C illustrates PIFscr (50 nM); FIG. 3D illustrates sPIF (50 nM)+anti-CD3 mAb; FIG. 3E illustrates PIFscr+anti-CD3 mAb. sPIF affected variably stimulated PBMCs individual cytokines secretion. In contrast, some cytokine secretion in naïve PBMCs decreased (not shown). […] Cytokine secretion determined by Luminex 10-plex. […] PBMCs were cultured in the presence of anti-CD3/anti-CD28-Mab for 24-48 hours. […] The effect on PBMCs at 48 hours was less pronounced (data not shown). At the end of experiment mRNA was extracted and global gene expression was analyzed by using an Affymetrix chip.

Ca++ mobilization = system: Ca++ mobilization
Experimental: FITC-sPIF binding to PBMCs subsets was determined using flow cytometry. sPIF's effect on Ca++ mobilization was tested by Flex station.

THP-1 cells [7] = system: THP-1 cells; remark: listed apart in the source
Nos2 = settings: mouse, in vivo

## IFNγ: phagocyte-activating cytokine
[1]
  IL-1a, IL-1b, TNFa, MIP-1alpha and KC response to Mtb, PIF and anti-Kv1.3, effect of IFN: lost
  MCP-1, IL-6 and IL-5 response to Mtb and PIF, effect of IFN: stopped

## MVRIKPGSANKPSDD [PIF]
ApoE−/− mice; PIF 0.1 mg/kg/day, i.p.
  reduction of plaque area in the aortic root compared to PBS control: 30%
ApoE−/− mice; PIF 1 mg/kg/day
  plaque area of the aortic arch compared to both doses of scrPIF: reduction
ApoE−/− mice; PIF 1 mg/kg/day, i.p.
  reduction of plaque area in the aortic root compared to PBS control: 46%
  reduction of plaque area of the aortic arch compared to PBS control: 43%
ApoE−/− mice; higher dose of PIF (1 mg/kg/day)
  plaque area in the aortic root compared to both doses of scrPIF: statistically significantly reduced
ApoE−/− mice; mouse, in vivo
  CD68 in the aortic root and arch: reduces
  MCP-1 in the aortic root and arch: reduces
  VCAM-1 in the aortic root and arch: reduces
  atherosclerosis formation (protective effect): reduces
  lipids (Oil Red O staining) in the aortic root and arch: reduces
C57bl6 mice
  MCP-1 induced monocyte migration in mouse peritonitis model: inhibits
[1]
  MCP-1, IL-6 and IL-5 induction by Mtb, effect of PIF: further induced; also recorded: augmented
  MCP-1 secretion by isolated macrophages: increased
  MIG and IP10 chemokines, effect of PIF: modestly augmented
  TNF, IL-1a, IL-1b, IL-6, MCP-1, MIP1a and KC response of BMDCs to Mtb: increased
  TNF, IL-1α, IL-1β, MIP1α and KC induction by Mtb, effect of PIF: augmented
  VEGF and FGFb (growth factors) in BMDCs exposed to Mtb: augmented
  VEGF and FGFβ induction by Mtb, effect of PIF: promoted; also recorded: augmented
[2]; PIF 1, 10 and 50 nM, no stimulation, 24 hours
  Th1/Th2 cytokine analytes, PIF alone: no effect
[2]; concluded from cell based assay using specific IDE inhibitor
  binding to intracellular insulin degrading enzyme (IDE): bind
B7-H1
  B7-H1 expression: up-regulates
B7-H1; listed as sPIF
  B7-H1 expression: significantly increased
[3]
  allogenic lymphocyte proliferation in MLR: reduce cells proliferation in a dose dependent manner
T cells
  T cell proliferation with PIF-treated monocytes: reduced proliferation but did not block it
THP-1 cells [4]
  VCAM-1, IL-12b and IFNg in THP-1 cells: reduced
[5]
  baseline NO: did not affect
[6]
  binding to LPS chemotypes (SPR): no apparent LPS binding
PBMCs
  TH2 and TH1 cytokines secretion in activated PBMCs: increased
PBMCs; listed as sPIF
  TH2 and TH1 cytokines secretion in activated PBMCs: promotes
PBMCs; naïve PBMCs
  TH1 (TNF-α, IL2) cytokines in naïve PBMCs: reduces
PBMCs; without TCR stimulation, 24-48 hours
  cytokine secretion, PIF alone: no significant promoting effect
Ca++ mobilization
  action through Ca++ mobilization: does not act through Ca++ mobilization
THP-1 cells [7]; PIF 1 μM
  MCP-1 induced transmigration of THP-1 cells: significantly reduced
THP-1 cells [7]; PIF 10 μM
  MCP-1 induced transmigration of THP-1 cells: significantly reduced
Nos2
  elevation of Nos2 expression in liver of semi-allogenic BMT mice: completely prevented
Human PBMCs
  anti-CD3-Mab-stimulated proliferation and mixed lymphocyte reaction: blocked
